{
  "source": "patent US9758538B2",
  "about": "“Pyrimidine derivatives” (PFIZER INC., priority 2015, dated 2017)",
  "data": [
    {"molecular_target": "truncated PI3Kα (p110α/iSH2 p85α), PI3KA_Act (Homo sapiens (Human), UniProt P42336)", "sequence (P42336 whole entry, the tested form may be a part)": "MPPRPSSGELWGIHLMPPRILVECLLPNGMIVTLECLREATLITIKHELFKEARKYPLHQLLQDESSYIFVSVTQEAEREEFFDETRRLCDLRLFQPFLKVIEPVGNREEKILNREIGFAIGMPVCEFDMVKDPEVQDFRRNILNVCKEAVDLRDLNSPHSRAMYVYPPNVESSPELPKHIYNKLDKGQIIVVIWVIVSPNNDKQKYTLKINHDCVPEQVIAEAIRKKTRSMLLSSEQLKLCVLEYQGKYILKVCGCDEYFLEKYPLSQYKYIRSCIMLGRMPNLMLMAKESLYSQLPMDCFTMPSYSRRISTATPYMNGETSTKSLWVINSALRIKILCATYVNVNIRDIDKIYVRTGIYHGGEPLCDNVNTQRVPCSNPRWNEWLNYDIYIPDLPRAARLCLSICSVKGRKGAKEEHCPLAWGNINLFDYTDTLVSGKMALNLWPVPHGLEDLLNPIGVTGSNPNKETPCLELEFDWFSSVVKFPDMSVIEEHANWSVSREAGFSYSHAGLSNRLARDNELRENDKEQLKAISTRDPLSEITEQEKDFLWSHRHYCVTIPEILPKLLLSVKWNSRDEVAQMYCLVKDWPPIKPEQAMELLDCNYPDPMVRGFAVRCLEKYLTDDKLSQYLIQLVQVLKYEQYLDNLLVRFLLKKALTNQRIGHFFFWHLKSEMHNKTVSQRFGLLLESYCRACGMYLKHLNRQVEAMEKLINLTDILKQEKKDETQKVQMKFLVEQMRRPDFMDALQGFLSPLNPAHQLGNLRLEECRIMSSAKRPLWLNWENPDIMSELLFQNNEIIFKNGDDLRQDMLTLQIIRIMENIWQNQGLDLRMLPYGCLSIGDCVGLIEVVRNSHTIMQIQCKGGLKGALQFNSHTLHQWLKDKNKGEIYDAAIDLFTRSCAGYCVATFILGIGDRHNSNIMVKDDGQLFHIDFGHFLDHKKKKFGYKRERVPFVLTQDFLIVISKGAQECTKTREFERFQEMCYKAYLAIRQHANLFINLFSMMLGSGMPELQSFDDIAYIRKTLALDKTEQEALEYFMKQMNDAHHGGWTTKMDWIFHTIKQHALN", "assay": "PI3Kα biochemical kinase assay, fluorescence polarization format (PI3KA_Act)", "details": "0.5 nM p110α/iSH2 p85, 1 mM ATP, 30 μM PIP2, 15-min preincubation; Morrison equation fit; read-out: PI3KA_Act Ki", "protocol": "(§1) Enzyme Production for Biochemical Assay: p110α-iSH2 p85α Complex (Full Length p110α and p85α iSH2)(“PI3KA Act”)\n(§2) Gene encoding p110α subunit was subcloned into polyhedrine promoter while gene encoding p85α niSH2 domains was subcloned into p10 promoter. […] Recombinant baculovirus was generated using Bac-to-Bac protocol (Life Technologies, Carlsbad, Calif.). Large scale expression was conducted in Sf21 (Life Technologies, Carlsbad, Calif.) cells at a multiplicity of infection (“MOI”)=1 for 48 hours. Cells were lyzed in 50 mM Tris pH 8.0, 250 mM NaCl, 5% glycerol, 0.25 mM TCEP, and 20 mM imidazole. The p110α-niSH2 p85α complex was purified from clarified supernatant using Immobilized Metalo Affinity Chromatography (“IMAC”). The protein was eluted from the column using 50 mM Tris pH 8.0, 200 mM NaCl, 0.25 mM TCEP, and 200 mM imidazole. Following elution p110α-niSH2 p85α complex was dialyzed against 4 liters of 50 mM Tris pH 8.0, 200 mM NaCl, 0.25 mM TCEP, and 40 mM imidazole in the presence of PreScission Protease (1:70 molar ratio of Protease to Protein) and TEV protease (1:40 molar ratio protease to protein) for 16 hours at 4° C. The protein was further purified using reverse IMAC to remove cleaved histidine tag and contaminants captured during initial IMAC purification. The mixture of p110α-iSH2 p85α complex and cleaved nSH2 was recovered in reverse IMAC 40 mM imidazole flow through and 60 mM imidazole wash fractions. Those fractions were pulled together and loaded on Superdex 200 26/60 SEC column equilibrated in 25 mM Tris, pH 8.0, 100 mM NaCl, 2% glycerol, and 2 mM TCEP.\n(§3) The enzymatic reactions were conducted in 50 μL volumes in 96-well plates. […] The reactions were incubated for 30 min at room temperature, stopped with EDTA pH 8 (10 mM final concentration). […] The plate was shaken for 30 minutes and fluorescence polarization values were measured on an LJL Analyst HT plate reader (Molecular Devices, Sunnyvale, Calif.).", "units": {"Ki": "nM"}, "values": [
      {"compound": "COC(=O)N1CCC[C@](CO)(Nc2cc(-c3cnc(N)nc3)nc(N3CCOCC3)n2)C1", "note": "[Example 5, methyl (3S)-3-{[2′-amino-2-(morpholin-4-yl)-4,5′-bipyrimidin-6-yl]amino}-3-(hydroxymethyl)piperidine-1-carboxylate]", "Ki": "< 0.018"},
      {"compound": "Nc1ncc(-c2cc(N[C@@]3(CO)CCN(C(=O)C4(F)CNC4)C3)nc(N3CCOCC3)n2)cn1", "note": "[Example 97, [(3S)-3-{[2′-amino-2-(morpholin-4-yl)-4,5′-bipyrimidin-6-yl]amino}-3-(hydroxymethyl)pyrrolidin-1-yl](3-fluoroazetidin-3-yl)methanone]", "Ki": "< 0.018"},
      {"compound": "Nc1ncc(-c2cc(N[C@@]3(CO)CCN(CC(F)F)C3)nc(N3CCOCC3)n2)cn1", "note": "[Example 67, [(3S)-3-{[2′-amino-2-(morpholin-4-yl)-4,5′-bipyrimidin-6-yl]amino}-1-(2,2-difluoroethyl)pyrrolidin-3-yl]methanol]", "Ki": 1.52},
      {"compound": "CC(C)(C)OC(=O)N1CC[C@](CO)(Nc2nc(N3CCOCC3)nc(-c3cnc(N)nc3)c2F)C1", "note": "[Example 38, tert-butyl (3S)-3-{[2′-amino-5-fluoro-2-(morpholin-4-yl)-4,5′-bipyrimidin-6-yl]amino}-3-(hydroxymethyl)pyrrolidine-1-carboxylate]", "Ki": "< 0.018"},
      {"compound": "Nc1ncc(-c2nc(N[C@@]3(CO)CCN(C(=O)OC4CC4)C3)nc(N3CCOCC3)n2)cn1", "note": "[Example 103, cyclopropyl (3S)-3-{[4-(2-aminopyrimidin-5-yl)-6-(morpholin-4-yl)-1,3,5-triazin-2-yl]amino}-3-(hydroxymethyl)pyrrolidine-1-carboxylate]", "Ki": 0.107},
      {"compound": "Nc1ncc(-c2cc(N[C@@]3(CO)CCN(C(=O)N4CCC4)C3)nc(N3CCOCC3)n2)cn1", "note": "[Example 89, [(3S)-3-{[2′-amino-2-(morpholin-4-yl)-4,5′-bipyrimidin-6-yl]amino}-3-(hydroxymethyl)pyrrolidin-1-yl](azetidin-1-yl)methanone]", "Ki": "< 0.018"},
      {"compound": "Nc1ncc(-c2nc(N3CCOCC3)nc(N[C@@]3(CO)CCN(C(=O)OC4CC4)C3)c2F)cn1", "note": "[Example 101, cyclopropyl (3S)-3-{[2′-amino-5-fluoro-2-(morpholin-4-yl)-4,5′-bipyrimidin-6-yl]amino}-3-(hydroxymethyl)pyrrolidine-1-carboxylate]", "Ki": 0.068},
      {"compound": "CCOC(=O)N1CC[C@](CO)(Nc2cc(-c3cnc(C)c(F)c3)nc(N3CCOCC3)n2)C1", "note": "[Example 129, ethyl (3S)-3-{[6-(5-fluoro-6-methylpyridin-3-yl)-2-(morpholin-4-yl)pyrimidin-4-yl]amino}-3-(hydroxymethyl)pyrrolidine-1-carboxylate]", "Ki": 8.29},
      {"compound": "CC(C)(C)NC(=O)N1CC[C@](CO)(Nc2cc(-c3cnc(N)nc3)nc(N3CCOCC3)n2)C1", "note": "[Example 48, (3S)-3-{[2′-amino-2-(morpholin-4-yl)-4,5′-bipyrimidin-6-yl]amino}-N-tert-butyl-3-(hydroxymethyl)pyrrolidine-1-carboxamide]", "Ki": 0.714},
      {"compound": "CN1CCCC(N2CC[C@](CO)(Nc3cc(-c4cnc(N)nc4)nc(N4CCOCC4)n3)C2)C1=O", "note": "(stereo partly drawn) [Example 84, 3-[(3S)-3-{[2′-amino-2-(morpholin-4-yl)-4,5′-bipyrimidin-6-yl]amino}-3-(hydroxymethyl)pyrrolidin-1-yl]-1-methylpiperidin-2-one]", "Ki": 0.445},
      {"compound": "COC(=O)N1CC[C@](CO)(Nc2cc(-c3cnc(N)nc3C(F)(F)F)nc(N3CCOCC3)n2)C1", "note": "[Example 58, methyl (3S)-3-{[2′-amino-2-(morpholin-4-yl)-4′-(trifluoromethyl)-4,5′-bipyrimidin-6-yl]amino}-3-(hydroxymethyl)pyrrolidine-1-carboxylate]", "Ki": 0.2},
      {"compound": "C[C@H]1COCCN1c1nc(N[C@@]2(CO)CCN(C(=O)C3CC3)C2)c(F)c(-c2cnc(N)nc2)n1", "note": "[Example 120, [(3S)-3-({2′-amino-5-fluoro-2-[(3S)-3-methylmorpholin-4-yl]-4,5′-bipyrimidin-6-yl}amino)-3-(hydroxymethyl)pyrrolidin-1-yl](cyclopropyl)methanone]", "Ki": "< 0.018"},
      {"compound": "Nc1ncc(-c2nc(N3CCOCC3)nc(N[C@]3(CO)CCCN(C(=O)C4CC4)C3)c2F)cn1", "note": "[Example 157, [(3R)-3-{[2′-amino-5-fluoro-2-(morpholin-4-yl)-4,5′-bipyrimidin-6-yl]amino}-3-(hydroxymethyl)piperidin-1-yl](cyclopropyl)methanone]", "Ki": 1.87},
      {"compound": "Cc1ncc(-c2cc(N[C@@]3(CO)CCN(C(=O)OCC(F)F)C3)nc(N3CCOCC3)n2)cn1", "note": "[Example 138, 2,2-difluoroethyl (3S)-3-(hydroxymethyl)-3-{[2′-methyl-2-(morpholin-4-yl)-4,5′-bipyrimidin-6-yl]amino}pyrrolidine-1-carboxylate]", "Ki": 0.557},
      {"compound": "Nc1ncc(-c2nc(N3CCOCC3)nc(N[C@@]3(CO)CCN(C(=O)OCCF)C3)c2F)cn1", "note": "[Example 139, 2-fluoroethyl (3S)-3-{[2′-amino-5-fluoro-2-(morpholin-4-yl)-4,5′-bipyrimidin-6-yl]amino}-3-(hydroxymethyl)pyrrolidine-1-carboxylate]", "Ki": "< 0.018"},
      {"compound": "CCOC(=O)N1CC[C@](CO)(Nc2nc(-c3cnc(N)nc3)nc(N3CCOC[C@@H]3C)n2)C1", "note": "[Example 118, ethyl (3S)-3-({4-(2-aminopyrimidin-5-yl)-6-[(3S)-3-methylmorpholin-4-yl]-1,3,5-triazin-2-yl}amino)-3-(hydroxymethyl)pyrrolidine-1-carboxylate]", "Ki": "< 0.018"},
      {"compound": "CCOC(=O)N1CC[C@](CO)(Nc2cc(-c3cnc(C)c(C#N)c3)nc(N3CCOCC3)n2)C1", "note": "[Example 128, ethyl (3S)-3-{[6-(5-cyano-6-methylpyridin-3-yl)-2-(morpholin-4-yl)pyrimidin-4-yl]amino}-3-(hydroxymethyl)pyrrolidine-1-carboxylate]", "Ki": 110},
      {"compound": "CCOC(=O)N1CC[C@](CO)(Nc2nc(N3CCOCC3)nc(-c3cnc(N)nc3)c2F)C1", "note": "[Example 69, ethyl (3S)-3-{[2′-amino-5-fluoro-2-(morpholin-4-yl)-4,5′-bipyrimidin-6-yl]amino}-3-(hydroxymethyl)pyrrolidine-1-carboxylate]", "Ki": 0.15},
      {"compound": "CCOC(=O)N1CC[C@](COC)(Nc2cc(-c3cnc(N)nc3)nc(N3CCOCC3)n2)C1", "note": "[Example 121, ethyl (3S)-3-{[2′-amino-2-(morpholin-4-yl)-4,5′-bipyrimidin-6-yl]amino}-3-(methoxymethyl)pyrrolidine-1-carboxylate]", "Ki": 0.15},
      {"compound": "CC[C@@]1(Nc2cc(-c3cnc(N)nc3)nc(N3CCOCC3)n2)CCN(C(=O)OC(C)(C)C)C1", "note": "[Example 37, tert-butyl (3R)-3-{[2′-amino-2-(morpholin-4-yl)-4,5′-bipyrimidin-6-yl]amino}-3-ethylpyrrolidine-1-carboxylate]", "Ki": 0.725},
      {"compound": "COC(=O)N1CC[C@](CO)(Nc2cc(-c3cnc(N)nc3C)nc(N3CCOCC3)n2)C1", "note": "[Example 59, methyl (3S)-3-{[2′-amino-4′-methyl-2-(morpholin-4-yl)-4,5′-bipyrimidin-6-yl]amino}-3-(hydroxymethyl)pyrrolidine-1-carboxylate]", "Ki": 0.18},
      {"compound": "Nc1ncc(-c2nc(N3CCOCC3)nc(N[C@]3(CO)CCCN(C(=O)OCC(F)F)C3)c2F)cn1", "note": "[Example 148, 2,2-difluoroethyl (3R)-3-{[2′-amino-5-fluoro-2-(morpholin-4-yl)-4,5′-bipyrimidin-6-yl]amino}-3-(hydroxymethyl)piperidine-1-carboxylate]", "Ki": 2.96},
      {"compound": "CC(C)CC(=O)N1CC[C@](CO)(Nc2cc(-c3cnc(N)nc3)nc(N3CCOCC3)n2)C1", "note": "[Example 57, 1-[(3S)-3-{[2′-amino-2-(morpholin-4-yl)-4,5′-bipyrimidin-6-yl]amino}-3-(hydroxymethyl)pyrrolidin-1-yl]-3-methylbutan-1-one]", "Ki": 0.116},
      {"compound": "Nc1ncc(-c2cc(N[C@@]3(CO)CCN(CC4CC4)C3)nc(N3CCOCC3)n2)cn1", "note": "[Example 71, [(3S)-3-{[2′-amino-2-(morpholin-4-yl)-4,5′-bipyrimidin-6-yl]amino}-1-(cyclopropylmethyl)pyrrolidin-3-yl]methanol]", "Ki": 9.47}
    ]},
    {"molecular_target": "truncated PI3Kα (p110α/iSH2 p85α), PI3KA_Act (Homo sapiens (Human), UniProt P42336)", "assay": "PI3Kα biochemical kinase assay, fluorescence polarization format (PI3KA_Act)", "details": "PI3KA_Act Ki (nM), 0.5 nM p110α/iSH2 p85, 1 mM ATP, 30 μM PIP2, 15-min preincubation; Morrison equation fit", "protocol": "as §1, §2, §3", "units": {"Ki": "nM"}, "values": [
      {"compound": "C[C@H]1COCCN1c1nc(N[C@@]2(CO)CCN(C(=O)OCC(F)F)C2)c(F)c(-c2cnc(N)nc2)n1", "note": "[Example 119, 2,2-difluoroethyl (3S)-3-({2′-amino-5-fluoro-2-[(3S)-3-methylmorpholin-4-yl]-4,5′-bipyrimidin-6-yl}amino)-3-(hydroxymethyl)pyrrolidine-1-carboxylate]", "Ki": "< 0.018"}
    ]}
  ]
}
